We go through one compound from US20200222400A1, “METHODS FOR THE TREATMENT OF NEUROLOGICAL DISORDERS” (Yumanity Therapeutics, Inc., priority 2019, published 2020).

The test system of assay [1] is rat cortical neurons transfected with alpha-synuclein A53T. Put plainly: Neurite degeneration assay. It counts as cell-based. The protocol: Rat primary cortical neurons cultured in 96-well plates (Greiner Bio-One) were co-transfected with a fluorescence reporter plasmid (encoding mKate2) and empty or alpha-synuclein-A53T overexpression plasmids by lipofection at 5-6 div (days in vitro). LIPOFECTAMINE® 2000 transfection reagent (Thermo Fisher) (0.5 μl/well) was diluted in NEUROBASAL® media (Thermo Fisher) and incubated for 5-10 min. The LIPOFECTAMINE®/NEUROBASAL® mixture was then added dropwise to a plasmid cocktail diluted in NEUROBASAL® media, and incubated for approximately 40 min. During this time, conditioned media on the neurons was replaced with media containing 1× kynurenic Acid (Sigma-Aldrich) in NEUROBASAL® media (NBKY). LIPOFECTAMINE®/DNA complex solutions were subsequently added dropwise to neurons in the NBKY media in the 96-well plate. Lipofection was carried out for 30-40 min in a standard cell culture incubator (37° C., 5% CO2). Neurons were then washed with NEUROBASAL® media, and 50% conditioned/50% fresh NEUROBASAL® media containing B-27 supplement and GlutaMax™ (Thermo Fisher) (NBM) was applied to the cultures.
Transfected rat cortical neuron cultures were treated with DMSO or CAY10566 compound 4-6 h post-transfection. […] Neurite lengths of transfected neurons were tracked by an RFP reporter, mKate2, and measured by NeuroTrack™ Software Module (Essen Bioscience). […]

Assay [2] concerns A53T α-synuclein transfected human iPSC-derived neurons. Kind of assay: Neuron survival assay, A53T α-synuclein transfected human iPSC-derived neurons. It counts as cell-based. The settings on record: all tested concentrations, 3 μM to 0.3 μM, relative to DMSO. The protocol:
Transfected neuronal cultures were imaged at 12-24 h intervals for the indicated number of days by robotic microscopy. Fluorescence images were acquired with a Nikon Eclipse Ti microscope equipped with a motorized stage, 20× extra-long working distance (ELWD) objective, and an Andor Zyla cMOS camera. During image acquisition, microplates were enclosed in an on-stage environmental chamber controlling temperature, CO2, and humidity (Okolab). Images were processed and analyzed with custom-made scripts in R and ImageJ software. The lifetimes of individual neurons were determined by tracking fluorescently-labeled neurons in ImageJ. Neuronal death was determined to occur upon incidence of RFP signal loss or rupture of cell body. Cox proportional hazards analysis was used to generate cumulative hazard plots and determine the risk of neuron death. Log-rank test was used to determine statistical significance of survival curve divergence between neuron cohorts.
A model of α-synuclein toxicity utilizing transient transfection into human iPSC-derived neurons was developed. […] This model was utilized to evaluate the role of SCD in α-synuclein-dependent neuronal toxicity. Human iPSC-derived neurons were transfected with a construct encoding A53T α-synuclein or an empty vector control. […]

The subject of assay [3] is alpha-synuclein transfected U2OS cells. Put plainly: U2OS ATP assay (alpha-synuclein toxicity). It is filed as cell-based, human. To be noted: 72 h, titration. The protocol: U2OS cells were trypsinized using 0.25% trypsin-EDTA (Thermo Fisher) for 5 min at 37° C. followed by centrifugation at 800 rpm for 5 min at room temperature. Cell pellets were re-suspended in SE solution (Lonza Biologics, Inc.) at a density of […]. Alpha-synuclein wild-type or empty control (pcDNA) plasmids were transfected at a ratio of […] per 1,000,000 cells. For genetic modifier studies, mRab1a was titrated at various concentrations in the presence of SNCA plasmids. Nucleofection was performed using 4D-NUCLEOFECTOR™ System (Lonza Biosciences, Inc.) under program code CM130 in either 20 μL Nucleocuvette™ strips or 100 μl single Nucleocuvettes™. Cells recovered at room temperature for 10-15 minutes after nucleofection before further handling. Pre-warmed medium was added and cells were thoroughly but gently mixed to a homogenous suspension before plating. Cells were seeded at 2×10^4 cells/100 μl/well into 96 well PLD-coated white plates (Corning, Inc.) using a customized semi-automated pipetting program (VIAFLO 384/96, Integra Biosciences).
Powders of reference SCD inhibitors (CAY10566, A939572 and MF-438) were resuspended and serial diluted in DMSO. […] ATP content was then measured using the CellTiter-Glo® kit (Promega) with luminescence signals measured on an EnVision multimode plate reader (Perkin Elmer).

With `Cc1nnc(-c2ccc(N3CCC(Oc4cc(F)ccc4Cl)CC3)nn2)o1` [CAY10566], the “neurite degeneration at highest concentrations” value in assay [1] (10 nM and 3 nM) is “complete rescue”. The neurite degeneration result in assay [1] (titration, tracked every 6 h for 7 d, relative to DMSO) is reported as “concentration-dependent decrease in neurite degeneration”. Also, the “risk of neuron death” value in assay [2] was “significantly reduced”. In assay [3], the “cellular ATP levels” value is on record as “significantly reversed alpha-synuclein-dependent decreases in ATP levels in a concentration-dependent fashion”.
